Data reported in patent publication US11548855B2, “Pyrazole amide compound and application thereof, and fungicide” (Shandong United Pesticide Industry Co. Ltd., priority 2017, dated 2023).

Key:
[1] = tested on: wheat powdery mildew (Erysiphe graminis); assay: Greenhouse pot test, wheat powdery mildew; assay type: in vivo; conditions: Blumeria graminis, 168 h, read-out: Control effect (%) Wheat powdery mildew
Source text: (§1) Test method: each of the test compounds in Table 1 was dispensed to 5 wt % emulsifiable concentrate (hereinafter referred to as 5% EC). The greenhouse pot test was used in each experiment, and the effective concentrations of each compound were illustrated in Table 1.
Wheat powdery mildew: two-leaf stage potted wheat seedling with uniform growth was selected and made foliar spray treatment with 5% EC, the blank control sprayed with clean water was additionally arranged, three replicates were carried out. After 24 h, the leaves of the host plants were inoculated by shake-down method with sporangial suspensions of the fungi wheat powdery mildew (Erysiphe graminis), the plants were stored in a greenhouse (25±1° C.). After 7 days, the screening results were investigated according to the disease incidence condition of blank control.
(§2) The investigation method: “Guidelines for the field efficacy trials of pesticides” was adopted as the grading standard, and the control effect in a unit of % was calculated based on the disease index. Disease index=Σ(number of diseased leaves at each grade×relative grade value)×100/(total number of leaves×9); Control effect (%)=(disease index of control−disease index of treated)×100/disease index of control;
(§3) The compounds provided by the present disclosure and some control compounds were tested by the same methods in the Test example 1, except that the effective concentrations of the compounds in this Test example are shown in Table 2.

[2] = tested on: soybean rust; assay: Field trial, soybean rust; assay type: in vivo, Phakopsora pacchyrhizi Sydow; conditions: sprayed 2 times
Protocol: III. The Soybean Rust Test Method:
(§4) Spray method: Stein and leaf spraying (Applicator: Xinkangda lithium battery electric sprayer).
Test crops: soybean (cultivars: Glycine max(L) Merr)
(§5) The test was carried out in Shenyang, the test field was loam with rich organic matters and normal management of fertilizer and water, and no other pesticide was applied during the test.
(§6) The arrangement of the test plot was random block permutation; the area of the test plot: 25 m^2; repeat times: 3 times; spray time and frequency: 2 times on Aug. 11, 2018 and Aug. 21, 2018 respectively. Spray dosage: each treatment was repeated 3 times, the total water consumption was 8 L. No other pesticide was applied during the test. […] 15-20 days after the second spray treatment, the control effect was investigated.
The incidence of disease spots in each plot was investigated by diagonal selecting 5 samples/plot and 20 plants/samples, 10 leaves/plant was surveyed.
(§7) The grading standard of crop disease was as follows:
(§8) Grade 0: no leaf-spot area;
(§9) Grade 1: the ratio of leaf-spot area to leaf area is less than 5%;
(§10) Grade 3: the ratio of leaf-spot area to leaf area is between 6-25%;
(§11) Grade 5: the ratio of leaf-spot area to leaf area is between 26-50%;
(§12) Grade 7: the ratio of leaf-spot area to leaf area is between 51-75%;
(§13) Grade 9: the ratio of leaf-spot area to leaf area is between 76-100%;
(§14) According to the relevant content of the “Guidelines for the field efficacy trials of pesticides of the People's Republic of China (PRC)”, the disease index was calculated according to the grading standard, and the control effect in a unit of % was calculated based on the disease index, and the test data of significance analysis was performed by using DPS evaluation system (DMRT).

[3] = tested on: corn rust (Puccinia sorghi); assay: Greenhouse pot test, corn rust; assay type: in vivo; conditions: Puccinia sorghi, 168 h, read-out: Control effect (%) Corn rust
Protocol: as §1
Corn rust: two-three leaf stage potted corn seedling with uniform growth was selected and made foliar spray treatment with 5% EC, the blank control sprayed with clean water was additionally arranged, three replicates were carried out. After 24 h, the leaves of the host plants were inoculated with sporangial suspensions of the fungi corn rust (Puccinia sorghi), the plants were stored in humidity chamber (temperature: lighting 25° C., dark 20° C., relative humidity 95-100%) and then transferred to greenhouse (25±1° C.) 24 h after infection. After 7 days, the screening results were investigated according to the disease incidence condition of blank control.
as §2, §3

[4] = tested on: soybean rust (Phakopsora pacchyrhizi Sydow); assay: Greenhouse pot test, soybean rust; assay type: in vivo; conditions: Glycine max, 168 h, read-out: Control effect (%) Soybean rust
Protocol: as §1
Soybean rust: two-leaf stage potted soybean seedling with uniform growth was selected and made foliar spray treatment with 5% EC, the blank control sprayed with clean water was additionally arranged, three replicates were carried out. After 24 h, the leaves of the host plants were inoculated with sporangial suspensions of the fungi soybean rust (Phakopsora pacchyrhizi Sydow), the plants were stored in humidity chamber (temperature 20-25° C., relative humidity>95%) and then transferred to greenhouse (25±1° C.) 8-16 h after infection. After 7 days, the screening results were investigated according to the disease incidence condition of blank control.
as §2, §3

[5] = tested on: cucumber powdery mildew; assay: Greenhouse pot test, cucumber powdery mildew; assay type: in vivo; conditions: Cucumis sativus, 192 h, greenhouse pot, read-out: Control effect (%) Cucumber powdery mildew
Protocol: as §1
Cucumber powdery mildew: cucumber seedling in a true leaf period with uniform growth was selected, and dried in the shade for 24 h after spray treatment. Fresh cucumber powdery mildew spores on the cucumber leaves were collected and washed, and filtered through a double gauze to prepare a spores suspension with concentration of about 100,000/mL, then spray inoculation was applied. The test materials inoculated were moved into a greenhouse (lighting 21-23° C.), after 8 days, the grading investigation was carried out according to the disease incidence condition of blank control, and the control effect in a unit of % was calculated according to disease index.
as §2, §3

[6] = tested on: wheat powdery mildew; assay: Field trial, wheat powdery mildew; assay type: in vivo, Erysiphe graminis; conditions: 100 mg/L, sprayed once
Protocol: II. The Wheat Powdery Mildew Test Method:
as §4
Test crops: wheat (cultivars: Liaochun 10)
as §5
The arrangement of the test plot was random block permutation; the area of the test plot: 15 m^2; repeat times: 3 times; spray time and frequency: Sep. 17, 2018, once. Spray dosage: each treatment was repeated 3 times, the total water consumption was 8 L. No other pesticide was applied during the test.
The incidence of disease spots in each plot was investigated by diagonal selecting 4 samples/plot and 20 plants/samples, and the first leaf below the flag leaf of each plant was investigated.
as §7, §8, §9, §10, §11, §12, §13, §14

[7] = tested on: cucumber powdery mildew; assay: Field trial, cucumber powdery mildew; assay type: in vivo; conditions: 100 mg/L, sprayed twice
Protocol: I. Cucumber Powdery Mildew Test Method:
Spray method: Stein and leaf spray (Applicator: Xinkangda lithium battery electric sprayer).
Test crop: cucumber (cultivars: Tianjiao7)
as §5
as §6, with “15” for “25”, “period between Sep. 28,” for “2 times on Aug. 11,”, “Oct. 11, 2018, twice.” for “Aug. 21, 2018 respectively.”, “second” for “second spray”, “incidence of disease spots in each plot” for “control effect”
The incidence of disease spots in each plot was investigated by randomly selecting 4 samples/plot and 2 plants/samples, all leaves/plant, the incidence of the whole plant was recorded by counting the number of disease leaves and determining the incidence grade.
Grading standard (in units of leaves):
as §8, §9
Grade 3: the ratio of leaf-spot area to leaf area is between 6-10%;
Grade 5: the ratio of leaf-spot area to leaf area is between 11-20%;
Grade 7: the ratio of leaf-spot area to leaf area is between 21-40%;
Grade 9: the ratio of leaf-spot area to leaf area is more than 40%;
as §14

[8] = tested on: wheat powdery mildew; conditions: cited from earlier work
[9] = tested on: wheat powdery mildew; conditions: cited from earlier work; remark: listed apart in the source

With `Cn1cc(C(=O)Nc2ccccc2Oc2ccc(C(F)(F)F)cc2I)c(C(F)F)n1` [Compound 4] the pest or weed control at 1.5625 µg/mL ([1]; 1.5625 mg/L) was 30%, the pest or weed control at 3.125 µg/mL ([1]; 3.1250 mg/L) was 70% and the pest or weed control at 6.25 µg/mL ([1]; 6.25 mg/L) was 10%. The pest or weed control at 25 µg/mL ([1]; 25 mg/L) was 25%, the pest or weed control at 100 µg/mL ([1]; 100 mg/L) was 60% and the “Control effect (%)” value ([2]; dosage 50 mg/L) was 80.14%. The “Control effect (%)” value ([2]; dosage 75 mg/L) was 85.62%, the “Control effect (%)” value ([2]; dosage 100 mg/L) was 93.11% and the pest or weed control at 1.5625 µg/mL ([3]; 1.5625 mg/L) was 50%. It also gave a pest or weed control at 3.125 µg/mL ([3]; 3.1250 mg/L) of 90%, a pest or weed control at 6.25 µg/mL ([3]; 6.25 mg/L) of 98% and a pest or weed control at 25 µg/mL ([3]; 25 mg/L) of 100%. The pest or weed control at 100 µg/mL ([3]; 100 mg/L) was 100%, the pest or weed control at 1.5625 µg/mL ([4]; 1.5625 mg/L) was 98% and the pest or weed control at 3.125 µg/mL ([4]; 3.1250 mg/L) was 100%. It also gave a pest or weed control at 6.25 µg/mL ([4]; 6.25 mg/L) of 100%, a pest or weed control at 25 µg/mL ([4]; 25 mg/L) of 100% and a pest or weed control at 100 µg/mL ([4]; 100 mg/L) of 100%.
Work on `OC(Cc1ccccc1Cl)(Cn1nc[nH]c1=S)C1(Cl)CC1` (stereo not shown) [Prothioconazole] yielded a pest or weed control at 1 µg/mL ([1]; 1 mg/L) of 30%, a pest or weed control at 2 µg/mL ([1]; 2 mg/L) of 50% and a pest or weed control at 4 µg/mL ([1]; 4 mg/L) of 70%. For the same compound, the pest or weed control at 1 µg/mL ([5]; 1 mg/L) was 75%, the pest or weed control at 2 µg/mL ([5]; 2 mg/L) was 80% and the pest or weed control at 4 µg/mL ([5]; 4 mg/L) was 90%. It also gave a pest or weed control at 6.25 µg/mL ([5]; 6.25 mg/L) of 85%, a pest or weed control at 25 µg/mL ([5]; 25 mg/L) of 98% and a pest or weed control at 100 µg/mL ([5]; 100 mg/L) of 100%. For the same compound, the “Control effect (%) Wheat powdery mildew” value [6] was 93%, the “Control effect (%)” value ([2]; dosage 50 mg/L) was 91.15% and the pest or weed control at 0.5 µg/mL ([4]; 0.5 mg/L) was 95%. The pest or weed control at 1 µg/mL ([4]; 1 mg/L) was 100%, the pest or weed control at 2 µg/mL ([4]; 2 mg/L) was 100% and the pest or weed control at 4 µg/mL ([4]; 4 mg/L) was 100%.
With `CON(C(=O)c1cn(C)nc1C(F)F)C(C)Cc1c(Cl)cc(Cl)cc1Cl` (stereo not shown) [Pydiflumetofen] the “Control effect (%) Wheat powdery mildew” value [6] was 91.0% and the “Control effect (%) Cucumber powdery mildew” value [7] was 86.0%.
For `CNC(=O)/C(=N/OC)c1ccccc1CO/N=C(C)/C=C/c1c(Cl)cccc1Cl` [fenaminstrobin], the “control effect in field test” value [8] is listed as “worse” and the “activity against wheat powdery mildew in greenhouse pot test” value [9] is listed as “extremely high activity”.
